Measurements from US20250313535A1, “ALPHA 4 BETA 7 INTEGRIN MODULATORS AND USES THEREOF” (DICE MOLECULES SV, INC., priority 2022, published 2025).
Where two headings read alike, the source gives them in different places.

Tests used:
[1] = molecular target: α4β1 integrin (Homo sapiens (Human), UniProt P05556+P13612); experiment: Integrin Adhesion Assay: Protocol 5 (VCAM-coated plate, RPMI-8866 cells with stable LOF mutation of the ITGB7 gene); assay type: cell-based
Procedure, shortened: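 RPMI-8866 B cells with CRISPR/Cas9 ITGB7 knockout (clonal, verified by flow cytometry) adhered to VCAM-coated wells for 1 h at 37° C in HEPES/NaCl buffer with 1 mM MnCl2, 0.1 mM CaCl2, 1% BSA, 1% DMSO. Bound cells quantified by CellTiter-Glo luminescence after washing; % inhibition versus DMSO and control, 4-parameter fit.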

[2] = molecular target: α4β7 integrin (Homo sapiens (Human), UniProt P13612+P26010); experiment: Integrin Adhesion Assay: Protocol 1 (MAdCAM-coated plate, RPMI-8866 cells, CellTiter GLO readout); assay type: cell-based
α4β7 integrin, sequence (P13612 34-1032): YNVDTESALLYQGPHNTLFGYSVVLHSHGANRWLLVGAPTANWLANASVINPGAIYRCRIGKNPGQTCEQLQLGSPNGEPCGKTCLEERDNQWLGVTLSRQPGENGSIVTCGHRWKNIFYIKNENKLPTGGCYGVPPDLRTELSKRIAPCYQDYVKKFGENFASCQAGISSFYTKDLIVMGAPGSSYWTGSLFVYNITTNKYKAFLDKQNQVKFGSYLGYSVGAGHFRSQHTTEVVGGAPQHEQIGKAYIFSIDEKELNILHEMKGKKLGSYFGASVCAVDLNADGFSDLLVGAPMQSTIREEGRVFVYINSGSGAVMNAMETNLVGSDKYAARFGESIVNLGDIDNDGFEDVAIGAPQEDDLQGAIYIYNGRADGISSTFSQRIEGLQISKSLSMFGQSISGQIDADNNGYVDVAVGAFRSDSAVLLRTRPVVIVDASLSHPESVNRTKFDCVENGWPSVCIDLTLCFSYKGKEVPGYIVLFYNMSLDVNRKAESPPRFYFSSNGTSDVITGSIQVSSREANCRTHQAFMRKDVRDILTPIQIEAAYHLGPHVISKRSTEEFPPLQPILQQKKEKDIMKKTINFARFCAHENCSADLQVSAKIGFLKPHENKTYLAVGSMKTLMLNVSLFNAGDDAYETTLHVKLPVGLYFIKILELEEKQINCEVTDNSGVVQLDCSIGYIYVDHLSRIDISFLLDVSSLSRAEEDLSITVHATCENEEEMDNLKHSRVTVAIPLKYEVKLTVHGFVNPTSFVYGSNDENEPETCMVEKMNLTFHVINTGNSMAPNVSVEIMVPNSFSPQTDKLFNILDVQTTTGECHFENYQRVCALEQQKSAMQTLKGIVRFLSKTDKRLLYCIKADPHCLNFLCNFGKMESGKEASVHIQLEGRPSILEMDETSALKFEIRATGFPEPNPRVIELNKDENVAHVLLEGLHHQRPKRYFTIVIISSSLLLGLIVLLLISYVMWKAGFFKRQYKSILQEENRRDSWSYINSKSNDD
α4β7 integrin, sequence (P26010 20-798): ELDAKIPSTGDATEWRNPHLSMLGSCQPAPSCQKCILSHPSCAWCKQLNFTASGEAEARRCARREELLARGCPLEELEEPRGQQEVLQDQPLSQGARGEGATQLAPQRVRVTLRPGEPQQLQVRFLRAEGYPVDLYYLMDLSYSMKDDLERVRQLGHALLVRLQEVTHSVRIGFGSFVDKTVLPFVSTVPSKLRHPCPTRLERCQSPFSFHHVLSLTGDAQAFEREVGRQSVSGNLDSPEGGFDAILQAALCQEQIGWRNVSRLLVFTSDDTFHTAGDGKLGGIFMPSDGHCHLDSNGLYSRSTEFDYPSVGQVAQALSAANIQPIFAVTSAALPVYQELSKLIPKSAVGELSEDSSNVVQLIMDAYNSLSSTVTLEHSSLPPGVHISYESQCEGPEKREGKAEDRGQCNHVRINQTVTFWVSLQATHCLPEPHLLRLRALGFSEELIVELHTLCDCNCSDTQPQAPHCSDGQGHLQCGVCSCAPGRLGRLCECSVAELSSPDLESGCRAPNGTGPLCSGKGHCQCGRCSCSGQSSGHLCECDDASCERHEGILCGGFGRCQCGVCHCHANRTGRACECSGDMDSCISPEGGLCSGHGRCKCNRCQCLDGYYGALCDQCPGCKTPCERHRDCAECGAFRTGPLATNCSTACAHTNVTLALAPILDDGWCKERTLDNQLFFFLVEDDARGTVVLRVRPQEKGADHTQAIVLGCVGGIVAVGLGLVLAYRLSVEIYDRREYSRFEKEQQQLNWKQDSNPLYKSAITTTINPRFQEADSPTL
Experimental: α4β7 and α4β1 inhibition was evaluated in vitro using at least one of the following procedures:
Integrin Adhesion Assay: Protocol 1
MAdCAM (R&D Systems, 0.1 ug) was diluted in 50 μL PBS, added to each well of an opaque ELISA plate (Thermo), and incubated overnight at 4° C. Coated plates were washed once with PBS and then blocked with 200 μL of assay buffer (10 mM HEPES, 150 mM NaCl, 1 mM MnCl2, 0.1 mM CaCl2), 1% BSA) for 1 hour at 37° C. and 5% CO2. After incubation, buffer was aspirated from the plates and 50 μL of fresh assay buffer is added. Compounds were added by a compouns dispenser (Tecan) and DMSO concentration was normalized to 1% across each plate. 50 μL of RPMI-8866 cells (2×10^6 per mL) were added to each well and the plates were incubated for 1 hour at 37° C. and 5% CO2. After incubation, plates were allowed to cool to RT for 10 minutes before being washed four times in assay buffer by an automated plate washer (BioTek). After washing, 100 μL of a 1:1 mixture of assay buffer and CellTiter GLO 2.0 reagent (Promega) were added to each well. Plates were mixed for 2 minutes at 1000 rpm and then allowed to incubate an additional 10 minutes before reading out luminescence on a Tecan Spark plate reader. Raw data was converted to percent inhibition based on DMSO only and control compound wells, and curves were analyzed by 4-parameter fit within Dotmatics software.

[3] = RPMI-8866 cells with stable LOF mutation of the ITGB7 gene, read-out: Mean IC50 α4β1 KO^b
[4] = Protocol 5, RPMI-8866 cells with LOF mutation of ITGB7, VCAM, read-out: Mean IC50 α4β1 KO
[5] = integrin adhesion assay, determined by at least one of the assays described (protocol not specified)

α4β1 integrin, sequence (P13612 34-1032): as the sequence (P13612 34-1032) above
α4β1 integrin, sequence (P05556 21-798): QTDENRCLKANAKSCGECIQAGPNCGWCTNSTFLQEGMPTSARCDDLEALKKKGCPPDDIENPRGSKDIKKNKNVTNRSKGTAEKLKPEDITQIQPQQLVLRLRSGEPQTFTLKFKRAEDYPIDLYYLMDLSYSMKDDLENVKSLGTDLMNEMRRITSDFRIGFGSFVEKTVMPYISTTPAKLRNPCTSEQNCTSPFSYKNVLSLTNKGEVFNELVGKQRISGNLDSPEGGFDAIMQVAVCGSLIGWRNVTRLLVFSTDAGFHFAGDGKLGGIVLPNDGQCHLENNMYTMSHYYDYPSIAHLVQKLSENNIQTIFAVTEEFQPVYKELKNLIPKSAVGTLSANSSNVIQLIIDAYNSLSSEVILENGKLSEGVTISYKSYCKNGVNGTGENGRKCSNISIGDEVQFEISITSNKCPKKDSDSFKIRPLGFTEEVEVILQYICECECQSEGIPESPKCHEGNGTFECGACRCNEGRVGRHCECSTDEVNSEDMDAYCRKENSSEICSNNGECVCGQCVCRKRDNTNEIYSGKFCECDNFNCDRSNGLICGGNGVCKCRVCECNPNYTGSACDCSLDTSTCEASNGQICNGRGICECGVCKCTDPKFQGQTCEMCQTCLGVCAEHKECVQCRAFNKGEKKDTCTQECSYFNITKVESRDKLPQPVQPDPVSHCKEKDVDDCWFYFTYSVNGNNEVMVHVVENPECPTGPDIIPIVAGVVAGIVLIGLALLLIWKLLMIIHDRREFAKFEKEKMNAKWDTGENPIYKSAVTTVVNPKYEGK

| IC50 [1, 3] [µM] | IC50 [2] [µM] | further results | SMILES |
| --- | --- | --- | --- |
| 0.1 to 1 | < 0.01 | – | Cn1c(C(F)(F)F)cc(C(F)(F)F)c(-c2cccc3c(C[C@H](NC(=O)C4(C(F)(F)F)CCN(CC(F)(F)F)CC4)C(=O)O)cccc23)c1=O [Compound 431] |
| > 1 | < 0.01 | – | CN(C)Cc1cccc2c(-c3cccc4c(C[C@H](NC(=O)c5c(F)cc(N6CCOC[C@@H]6C(F)(F)F)cc5CN5CCOCC5)C(=O)O)cccc34)nccc12 [Compound 298] |
| > 1 | 0.01 to 0.1 | – | Cc1n[nH]c(C)c1-c1ccc(F)c(C(=O)N[C@@H](Cc2cccc3c(-c4c(C(F)(F)F)c5ccccc5n(C)c4=O)cccc23)C(=O)O)c1F [Compound 309] |
| > 1 | 0.01 to 0.1 | – | Cn1c(=O)c(-c2cccc3c(C[C@H](NC(=O)[C@]4(C)CC[C@@H](N5CCC(F)(F)CC5)CC4)C(=O)O)cccc23)c(C(F)(F)F)c2ccccc21 [Compound 401] |
| > 1 | 0.01 to 0.1 | – | CN1CCN(c2cc(F)c(C(=O)N[C@@H](Cc3cccc4c(-c5c(C(F)(F)F)c6ccccc6n(C)c5=O)cccc34)C(=O)O)c(F)c2)CC1 [Compound 350] |
| > 1 | 0.1 to 1 | – | Cn1c(=O)c(-c2cccc3c(C[C@H](NC(=O)c4c(F)cc(N5CCCC[C@@H]5C(F)(F)F)cc4F)C(=O)O)cccc23)c(C(F)(F)F)c2ccccc21 [Compound 318] |
| > 1 | > 1 | – | CN(C)c1ccc2c(c1)c(C(F)(F)F)c(-c1cccc3c(C[C@H](NC(=O)[C@]4(C)CC[C@H](N5CCC(F)(F)CC5)CC4)C(=O)O)cccc13)c(=O)n2C [Compound 412] |
| > 1 | 0.01 to 0.1 | – | CN1CCN(Cc2cccc(F)c2C(=O)N[C@@H](Cc2cccc3c(-c4c(C(F)(F)F)c5ccccc5n(C)c4=O)cccc23)C(=O)O)CC1 [Compound 353] |
| > 1 | < 0.01 | – | CN(C)Cc1ccc2c(-c3cccc4c(C[C@H](NC(=O)c5c(F)cc(N6CCOC[C@@H]6C(F)(F)F)cc5CN5CCOCC5)C(=O)O)cccc34)nccc2c1 [Compound 557] |
| > 1 | < 0.01 | – | CN(C)Cc1cccc2c(-c3cccc4c(C[C@H](NC(=O)[C@]5(C)CC[C@H](N6CCC(F)(F)CC6)CC5)C(=O)O)cccc34)nccc12 [Compound 424] |
| > 1 | 0.01 to 0.1 | – | Cn1c(=O)c(-c2cccc3c(C[C@H](NC(=O)[C@]4(C)CC[C@H](N5CCOC[C@@H]5C(F)(F)F)CC4)C(=O)O)cccc23)c(C(F)(F)F)c2ccccc21 (single isomer, unassigned) [Compound 347] |
| > 1 | 0.01 to 0.1 | – | CN(C)Cc1ccc2c(-c3cccc4c(C[C@H](NC(=O)[C@]5(C)CC[C@H](N6CCOC[C@@H]6C(F)(F)F)CC5)C(=O)O)cccc34)nccc2c1 [Compound 582] |
| > 1 | 0.01 to 0.1 | – | Cn1c(=O)c(-c2cccc3c(C[C@H](NC(=O)c4c(F)cc(N(CC(F)(F)F)CC(F)(F)F)cc4F)C(=O)O)cccc23)c(C(F)(F)F)c2ccccc21 [Compound 324] |
| – | – | IC50 [1, 4]: > 1 µM; IC50 ([2]; protocol not given): 0.01 to 0.1 µM | Cc1cccc(C)c1-c1cc(F)c(C(=O)N[C@@H](Cc2cccc3c(-n4c(=O)cc(CCN5CC(F)C5)n(C)c4=O)cccc23)C(=O)O)c(F)c1 [Compound 1057] |
| > 1 | 0.01 to 0.1 | – | Cn1c(=O)c(-c2cccc3c(C[C@H](NC(=O)c4c(F)cc(N(CCC(F)(F)F)C5COC5)cc4F)C(=O)O)cccc23)c(C(F)(F)F)c2ccccc21 [Compound 392] |
| > 1 | 0.01 to 0.1 | – | Cc1cncc(C)c1-c1ccc(F)c(C(=O)N[C@@H](Cc2cccc3c(-c4c(C(F)(F)F)c5ccccc5n(C)c4=O)cccc23)C(=O)O)c1F [Compound 314] |
| > 1 | 0.01 to 0.1 | – | Cn1c(C(F)(F)F)cc(C(F)(F)F)c(-c2cccc3c(C[C@H](NC(=O)[C@]4(C)CC[C@@H](N5CCOC[C@@H]5C(F)(F)F)CC4)C(=O)O)cccc23)c1=O [Compound 407] |
| > 1 | 0.1 to 1 | – | CO[C@H](C)c1cc(F)c(C(=O)N[C@@H](Cc2cccc3c(-c4c(C(F)(F)F)c5ccccc5n(C)c4=O)cccc23)C(=O)O)c(F)c1 [Compound 375] |

| IC50 [1, 3] [µM] | IC50 [2] [µM] | further results | SMILES |
| --- | --- | --- | --- |
| > 1 | 0.01 to 0.1 | – | Cc1cccc(C)c1-c1nc(C)c(C(=O)N[C@@H](Cc2cccc3c(-c4c(C(F)(F)F)c5ccccc5n(C)c4=O)cccc23)C(=O)O)n1C [Compound 330] |
| – | – | IC50 [1, 4]: 0.1 to 1 µM; IC50 ([2]; protocol not given): < 0.01 µM | CN(C)CCc1ccc2c(c1)c(C(F)(F)F)c(-c1cccc3c(C[C@H](NC(=O)c4c(F)cccc4F)C(=O)O)cccc13)c(=O)n2C [Compound 705] |
| > 1 | 0.01 to 0.1 | – | O=C(N[C@@H](Cc1cccc2c(-c3cccc4ccncc34)cccc12)C(=O)O)c1c(F)cccc1CN1CCC(F)(F)CC1 [Compound 358] |
| > 1 | 0.1 to 1 | – | CO[C@@H](C)c1cc(F)c(C(=O)N[C@@H](Cc2cccc3c(-c4c(C(F)(F)F)c5ccccc5n(C)c4=O)cccc23)C(=O)O)c(F)c1 [Compound 415] |
| – | > 1 | – | Cn1c(=O)c(-c2cccc3c(C[C@H](NC(=O)c4c(F)ccc(C5CCCCC5)c4F)C(=O)O)cccc23)c(C(F)(F)F)c2ccccc21 [Compound 377] |
| – | > 1 | – | COCC1CCN(c2cc(F)c(C(=O)N[C@@H](Cc3cccc4c(-c5c(C(F)(F)F)c6ccccc6n(C)c5=O)cccc34)C(=O)O)c(F)c2)C1 (stereo partly shown) [Compound 463] |
| – | – | IC50 [2, 5]: 0.01 to 0.1 µM | Cc1nn(CC(F)(F)F)c(C)c1C(=O)N[C@@H](Cc1cccc2c(-n3c(=O)ccn(C)c3=O)cccc12)C(=O)O [Compound 122] |
| – | 0.1 to 1 | – | Cn1c(=O)c(-c2cccc3c(C[C@H](NC(=O)c4c(F)cc(N5CCC(F)(F)CC5)cc4F)C(=O)O)cccc23)c(C(F)(F)F)c2ccccc21 [Compound 379] |
| – | > 1 | – | CN1CC(C)(Cc2cc(F)c(C(=O)N[C@@H](Cc3cccc4c(-c5c(C(F)(F)F)c6ccccc6n(C)c5=O)cccc34)C(=O)O)c(F)c2)C1 [Compound 369] |
| – | > 1 | – | Cn1c(=O)c(-c2cccc3c(C[C@H](Nc4nccc(N5CCOC[C@@H]5C(F)(F)F)c4F)C(=O)O)cccc23)c(C(F)(F)F)c2ccccc21 [Compound 326] |
| – | 0.1 to 1 | – | CC(C)[C@H]1COCCN1c1cc(F)c(C(=O)N[C@@H](Cc2cccc3c(-c4c(C(F)(F)F)c5ccccc5n(C)c4=O)cccc23)C(=O)O)c(F)c1 [Compound 337] |
| – | 0.1 to 1 | – | Cn1c(=O)c(-c2cccc3c(C[C@H](NC(=O)c4c(F)cc(N5CC(F)C5)cc4F)C(=O)O)cccc23)c(C(F)(F)F)c2ccccc21 [Compound 395] |
| – | – | IC50 [2, 5]: 0.01 to 0.1 µM | CC1(C)NC(=O)c2c(-c3cccc4c(C[C@H](NC(=O)c5c(F)cccc5F)C(=O)O)cccc34)cccc21 [Compound 5] |
| – | 0.1 to 1 | – | Cn1c(=O)c(-c2cccc3c(C[C@H](NC(=O)c4c(F)cc5[nH]c(CC(F)(F)F)nc5c4F)C(=O)O)cccc23)c(C(F)(F)F)c2ccccc21 [Compound 320] |
| – | > 1 | – | Cn1c(=O)c(-c2cccc3c(C[C@H](NC(=O)c4c(F)cc([C@H]5C[C@H](N(C)C)C5)cc4F)C(=O)O)cccc23)c(C(F)(F)F)c2ccccc21 [Compound 417] |
| – | – | IC50 [2, 5]: 0.01 to 0.1 µM | Cn1ccc(=O)n(-c2cccc3c(C[C@H](NC(=O)C4(C(F)(F)F)CCCCC4)C(=O)O)cccc23)c1=O [Compound 13] |
| – | – | IC50 [2, 5]: 0.1 to 1 µM | Cn1ccc(C(F)(F)F)c(-c2ccnc3c(C[C@H](NC(=O)c4c(F)cccc4F)C(=O)O)cccc23)c1=O [Compound 212] |
| – | – | IC50 [2, 5]: 0.01 to 0.1 µM | Cn1ccc(=O)n(-c2cccc3c(C[C@H](NC(=O)c4c(F)ccc(C#N)c4F)C(=O)O)cccc23)c1=O [Compound 32] |
